Measurements: patent US20220218664A1, “DRUG AND METHOD FOR TREATING OR PREVENTING COMPLICATIONS FROM DIABETES, USING SAID DRUG” (TMS Co., Ltd., priority 2019, published 2022)

Columns and labels:
[1] = tested on: streptozotocin-induced diabetic mice; test: Blood glucose level (BS) in streptozotocin-induced diabetic mice; format: in vivo, C57BL/6J male mice; details: 30 mg/kg i.p. once a day
Method: 9-week-old C57BL/6J male mice were purchased and familiarized with an animal facility for 1 week. 200 mg/kg of streptozotocin (streptozotocin; STZ) was administered […] into the peritoneal cavity of 10-week-old mice to prepare streptozotocin-induced diabetic mice (hereinafter also referred to as “STZ administration week 0”). One week after the administration of streptozotocin, blood was collected from the tail vein of the mice, and the blood glucose level (BS) was measured using an automatic blood glucose measuring device (product name: Medisafe (trademark) Mini GR-102, made by Terumo (Co)). Mice having a blood glucose level of 400 mg/dL or more were determined to be diabetic mice.
The SMTP-44D groups, the edaravone group, and the pregabalin group were administered SMTP-44D (0.3 mg/kg, 3 mg/kg, or 30 mg/kg doses, respectively), edaravone (10 mg/kg dose), or pregabalin (10 mg/kg dose) into the peritoneal cavity once a day for 3 consecutive weeks from the day following the first week to the fourth week after STZ administration.
For the above-mentioned STZ group, SMTP-44D groups, edaravone group, pregabalin group, and control group mice, the following measurements were conducted every week from the 0th week, which began on the day when streptozotocin (STZ) was administered, to the 4th week (that is, a total of five times). As algesia tests, the following von Frey test and hot plate test were conducted, and hind plantar blood flow, body weight (BW), and blood glucose level (BS) were measured using the above-mentioned automatic blood glucose measure device. Note, for example, the 0th week represents the 0th day. That is, the measurements were conducted on the 0th, 7th, 14th, 21st, and 28th days.

[2] = tested on: diabetic nephropathy model mice; test: Serum creatinine; details: 16 weeks old
[3] = tested on: diabetic nephropathy model mice; test: Blood glucose level in diabetic nephropathy model mice; format: in vivo, Male db/db mice; details: 30 mg/kg i.p. once every two days for 10 weeks; 16 weeks old
[4] = tested on: diabetic nephropathy model mice; test: Urinary albumin; details: 30 mg/kg i.p. once every two days for 10 weeks; 16 weeks old
[5] = tested on: diabetic nephropathy model mice; test: Urine volume (24 h, metabolic cage); format: in vivo, Male db/db mice; details: 16 weeks old, 24 h urine
[6] = Body weight in diabetic nephropathy model mice; format: in vivo, Male db/db mice; details: 30 mg/kg i.p. once every two days for 10 weeks; 16 weeks old
[7] = tested on: diabetic nephropathy model mice; test: Tubular regeneration score (HE-stained kidney); format: in vivo, Male db/db mice; details: 16 weeks old, score 0 to 4
[8] = 30 mg/kg i.p. once every two days for 10 weeks
[9] = 300 mg/kg orally once every two days for 10 weeks

With `CC(C)=CCC/C(C)=C/CCC1(C)Oc2c(c(O)cc3c2CN([C@H](Cc2ccccc2)C(=O)O)C3=O)CC1O` (some centres unmarked) [SMTP-4D] the “BS (blood glucose level)” value ([1]; 0th week (before dosing)) was 203.5 ± 5.5 mg/dL, the “BS (blood glucose level)” value ([1]; 1st week (before dosing)) was 535.5 ± 28.7 mg/dL and the “BS (blood glucose level)” value ([1]; 2nd week) was 597.3 ± 44.8 mg/dL. For the same compound, the “BS (blood glucose level)” value ([1]; 3rd week) was 638.7 ± 34.2 mg/dL and the “BS (blood glucose level)” value ([1]; 4th week) was 580.3 ± 42.9 mg/dL.
For `CC(C)=CCC/C(C)=C/CCC1(C)Oc2c(c(O)cc3c2CN(c2cc(C(=O)O)ccc2O)C3=O)CC1O` (centres unmarked) [SMTP-27], the Serum creatinine [2, 8] was 0.4 ± 0.1 mg/dL, the “Blood glucose levels compared to the DN group” value [3] was “No significant changes” and the Urinary albumin [4] was 0.3 ± 0.1 mg/h/kg. For the same compound, the Urine volume [5, 8] was 1659.2 ± 270.2 µL, the “Body weight compared to the DN group” value [6] was “No significant changes” and the Tubular regeneration score [7, 8] was 0.0±0.0 pts.
Compound `CN(C)C(=N)N=C(N)N` [metformin] has a Serum creatinine [2, 9] of 0.6 ± 0.0 mg/dL, a Urine volume [5, 9] of 1678.3 ± 250.4 µL and a Tubular regeneration score [7, 9] of 0.5±0.2 pts.
